Measurements from patent US10980776B2, “Synergistic pharmaceutical combination for the treatment of squamous cell carcinoma of head and neck” (Piramal Enterprises Limited, priority 2011, dated 2021).
Where two headings read alike, the source gives them in different places.

Tests used:
SCC-25 cells [1] = test: CCK-8 cytotoxicity assay, determination of inhibitory concentrations in SCC-25 cells; assay type: cell-based; conditions: for IC50 / IC90: Homo sapiens
Experimental: (§1) Logarithmically growing cells were plated at a density of 3×10^3 cells/well and allowed to recover overnight. […] After 72 hours, cell toxicity was determined by CCK-8 (Cell Counting Kit-8) reagent (Dojindo Molecular Technologies, Japan); WST-8 (2-(2-methoxy-4-nitrophenyl)-3-(4-nitrophenyl)-5-(2, 4-disulfophenyl)]-2H-tetrazolium, monosodium salt) assay. In accordance with the manufacturer's instructions, 5 μl/well CCK-8 reagent was added and plates were incubated for 2 hours. The toxicity was determined by measuring the absorbance on Tecan Sapphire multi-fluorescence micro-plate reader (Tecan, Germany, GmbH) at a wavelength of 450 nm corrected to 650 nm and normalized to controls.
(§2) CCK-8 allows convenient assays using Dojindo's tetrazolium salt, WST [8[(2-(2-methoxy-4-nitrophenyl)-3-(4-nitrophenyl)-5-(2,4-disulfophenyl)-2H-tetrazolium, monosodium salt], which produces a water-soluble formazan dye upon bioreduction in the presence of an electron carrier, 1-Methoxy PMS. CCK-8 solution is added directly to the cells; no pre-mixing of components is required. CCK-8 is a sensitive nonradioactive colorimetric assay for determining the number of viable cells in cell proliferation and cytotoxicity assays. WST-8 is bio-reduced by cellular dehydrogenases to an orange formazan product that is soluble in tissue culture medium. The amount of formazan produced is directly proportional to the number of living cells. The detection sensitivity of cell proliferation assays using WST-8 is higher than assays using the other tetrazolium salts such as MIT, XTT, MTS or WST-1. Optical Density was determined at measurement wavelength of 450 nm and reference wave length of 630 nm.
(§3) The cells were seeded at a density of 3000 cells/well, in a 200 μL in tissue culture grade 96 well plate and were allowed to recover for 24 hrs in a humidified 5%±0.2 CO2 incubator at 37° C.±0.5° C. […] The final DMSO concentration was 0.5% in wells. Plates were incubated for 48 hrs in humidified 5%±0.2 CO2 incubator at 37±0.5° C. After 48 hrs the plates were removed from CO2 incubator and 5 μL of Cell counting Kit (CCK-8) per well was added. The same plate was kept at 37° C. for 3 hrs, and allowed to come to room temperature. The absorbance at a wavelength of 450 nm was read on Tecan safire reader. The percent cytotoxicity was calculated using the following formula.

Detroit-562 cells [2] = test: CCK-8 cytotoxicity assay, determination of inhibitory concentrations in Detroit-562 cells; assay type: cell-based; conditions: 72 hr
Experimental: as §1, §2, §3

SCC-25 cells [3] = test: Combination studies (single and sequential combination dosing), % cytotoxicity in SCC-25 cells; conditions: Homo sapiens, SCC-25, SCC-25
Experimental: as §1, §2
Sorafenib in the following dose of final concentration 0.18 μM and compound A in the following doses of final concentration 0.1 μM, 0.4 μM and 4.1 μM were analyzed in single dose and in all possible combinations of the dose range for the two anticancer agents mentioned above. The sequence of treatment is as follows; the SCC-25 cells were treated with sorafenib for 0 to 24 hrs. At the end of 24 hrs the cells were washed two times with plain MEM (minimum essential media) medium. Fresh MEM with 10% serum (200 μL/well) was added, followed by treatment with compound A from 24 hrs to 96 hrs.
(§4) Sorafenib in the following dose of final concentration 0.18 μM and compound B in the following doses of final concentration 0.2 μM, 1.1 μM and 4.8 μM were analyzed in single dose and in all possible combinations of the dose range for the two anticancer agents mentioned above. The sequence of treatment is as follows; the SCC-25 cells were treated with sorafenib for 0 to 24 hrs. At the end of 24 hrs the cells were washed two times with plain MEM medium. Fresh MEM with 10% serum (200 μL/well) was added, followed by treatment with compound B from 24 hrs to 96 hrs.
Lapatinib in the following dose of final concentration 0.2 μM and compound A in the following doses of final concentration 0.2 μM, 0.5 μM and 3.3 μM were analyzed in single dose and in all possible combinations of the dose range for the two drugs mentioned above. The sequence of treatment is as follows; the SCC-25 cells were treated with lapatinib for 0 to 24 hrs. At the end of 24 hrs the cells were washed two times with plain MEM medium. Fresh MEM with 10% serum (200 μL/well) was added, followed by treatment with compound A from 24 hrs to 96 hrs.
(§5) Lapatinib in the following dose of final concentration 0.2 μM and compound B in the following doses of final concentration 0.2 μM, 1.1 μM and 4.8 μM were analyzed in single dose and in all possible combinations of the dose range for the two drugs mentioned above. The sequence of treatment is as follows; the SCC-25 cells were treated with lapatinib for 0 to 24 hrs. At the end of 24 hrs the cells were washed two times with plain MEM medium. Fresh MEM with 10% serum (200 μL/well) was added, followed by treatment with compound A from 24 hrs to 96 hrs.

Detroit-562 cells [4] = test: Combination studies (single and sequential combination dosing), % cytotoxicity in Detroit-562 cells; conditions: for cytotoxicity at 1.8 µM / cytotoxicity at 1 µM: Homo sapiens, Detroit 562, Detroit-562; for % Cytotoxicity: Detroit-562
Experimental: as §1, §2
as §4, with “1.8” for “0.18”, “A” for “B”, “0.5” for “0.2”, “1.3” for “1.1”, “12.1” for “4.8”, “Detroit-562” for “the SCC-25”
as §4, with “1.8” for “0.18”, “2.7” for “0.2”, “14.1” for “1.1”, “25.2” for “4.8”, “Detroit-562” for “SCC-25”
Lapatinib in the following dose of final concentration 1 μM and compound A in the following doses of final concentration 0.5 μM, 1.3 μM and 12.1 μM were analyzed in single dose and in all possible combinations of the dose range for the two anticancer agents mentioned above. The sequence of treatment is as follows; the Detroit-562 cells were treated with lapatinib for 0 to 24 hrs. At the end of 24 hrs the cells were washed two times with plain MEM medium. Fresh MEM with 10% serum (200 μL/well) was added, followed by treatment with compound A from 24 hrs to 96 hrs.
as §5, with “final concentration 1.0 μM and” for “final concentration 0.2 μM and”, “final concentration 2.7 μM, 14.1” for “final concentration 0.2 μM, 1.1”, “2.7 μM, 14.1 μM and” for “0.2 μM, 1.1 μM and”, “μM and 25.2 μM were” for “μM and 4.8 μM were”, “follows; the Detroit-562 cells were” for “follows; the SCC-25 cells were”

FADU cells [5] = test: cells; conditions: Homo sapiens
FADU cells [6] = test: CCK-8 cytotoxicity assay, determination of inhibitory concentrations in FADU cells; assay type: cell-based, human; conditions: 72 hr
Experimental: as §1, §2, §3

[7] = test system: FaDu (hypopharyngeal squamous cell carcinoma) xenografts; test: In vivo efficacy in human head and neck cancer FaDu xenografts; conditions: FaDu xenografts in SCID mice; end of treatment, after 18 days; Compound A 35 mpk i.p. once daily 5 days a week; cisplatin 1 mpk i.p. once a week; cetuximab 2.5 mpk twice a week; 3 weeks
Experimental: In-vivo studies were carried out according to the method described in Clinical cancer search, 2003, 9, 6052-6061; the disclosure of which is incorporated herein by reference for the teaching of the assay.
The in-vivo studies were carried out using Xenograft models in Severe combined immune deficiency (SCID) mice strain—CbySmn.CB17-Prkdcscid/J, by the method described below. The statistically significant number of mice per group (n=6) was chosen in order to be able to statistically evaluate the study data.
FaDu cells were grown in MEM (minimum essential media) medium containing non-essential amino acids and 10% fetal calf serum in 5% CO2 incubator at 37° C. Cells were pelleted by centrifugation at 1000 rpm for 10 minutes. Cells were resuspended in pre-chilled mixture of saline to get a count of 6×10^6 cells per mL; 0.2 ml of this cell suspension was kept on ice and injected by subcutaneous (s.c.) route in SCID mice. Mice were observed every alternate day for palpable tumor mass. Once the tumor size reached a size of 3-5 mm in diameter, animals were randomized into respective groups of treatment and untreated controls. The treatment groups comprised of 5 groups viz. […] The control group received no treatment.
Measurement of tumor was done every 2-3 days apart. Growth inhibition percentage (GI %) was calculated at the end of experiment.

FADU cells [8] = conditions: FADU
[9] = single agent at IC10, docetaxel study
[10] = single agent at IC30, docetaxel study
[11] = single agent at IC50, cisplatin/5-FU/compound A study
[12] = single agent at IC70, cisplatin/5-FU/compound A study

SMILES	IC90 (SCC-25 cells [1]; SCC-25 cells, 72 hr) [µM]	IC30 (SCC-25 cells [1]; SCC-25 cells, 72 hr) [µM]	IC70 (SCC-25 cells [1]; SCC-25 cells, 72 hr) [µM]	IC30 (Detroit-562 cells [2]) [µM]	IC70 (Detroit-562 cells [2]) [µM]	IC50 (Detroit-562 cells [2]; Homo sapiens) [µM]	IC90 (Detroit-562 cells [2]; Homo sapiens) [µM]	IC30 (FADU cells [6]) [µM]	IC70 (FADU cells [6]) [µM]	IC50 (FADU cells [6]; Homo sapiens) [µM]	IC90 (FADU cells [6]; Homo sapiens) [µM]	IC10 (Detroit-562 cells [2]) [µM]	IC10 (FADU cells [6]) [µM]	also measured
CNC(=O)c1cc(Oc2ccc(NC(=O)Nc3ccc(Cl)c(C(F)(F)F)c3)cc2)ccn1.Cc1ccc(S(=O)(=O)O)cc1 [Sorafenib, 4-(4-{3-[4-chloro-3-(trifluoromethyl)phenyl]ureido}phenoxy)N^2-methylpyridine-2-carboxamide-4-methylbenzenesulfonate]	11.7	0.18	6.8	1.8	11.2	6.1	15.3	3.9	14.8	8.4	30.6	–	–	IC50 (SCC-25 cells [1]; SCC-25, 72 h): 2.7 µM; cytotoxicity at 0.18 µM (SCC-25 cells [3]; single agent at IC30 (sorafenib 0.18 μM; compound A 0.1 μM)): 13%; cytotoxicity at 0.18 µM (SCC-25 cells [3]; single agent at IC30 (sorafenib 0.18 μM; compound B 0.2 μM)): 13%; cytotoxicity at 1.8 µM (Detroit-562 cells [4]; single agent at IC30 (sorafenib 1.8 μM; compound A 0.5 μM)): 14%; cytotoxicity at 1.8 µM (Detroit-562 cells [4]; single agent at IC30 (sorafenib 1.8 μM; compound B 2.7 μM)): 13%; cytotoxicity at 3.9 µM (FADU cells [5]; single agent at IC30 (sorafenib 3.9 μM; compound A 0.2 μM)): 21%; cytotoxicity at 3.9 µM (FADU cells [5]; single agent at IC30 (sorafenib 3.9 μM; compound B 2.3 μM)): 21%
N.N.[Cl][Pt][Cl] [Cisplatin]	–	–	–	3	43.2	–	–	3	30	–	–	0.3	0.25	IC50 (Detroit-562 cells [2]): 14.6 µM; IC90 (Detroit-562 cells [2]): 74.5 µM; Tumor Growth inhibition (%) [7]: 4%; IC50 (FADU cells [6]): 8.3 µM; IC90 (FADU cells [6]): 74 µM
C#Cc1cccc(Nc2ncnc3cc(OCCOC)c(OCCOC)cc23)c1 [Erlotinib]	–	–	–	1.4	6.3	2.3	10.7	0.9	30.7	10.2	63	–	–	–
O=c1[nH]cc(F)c(=O)[nH]1 [Compound 5-FU]	–	–	–	1.1	17.6	6.3	33.4	2.3	22.4	11.6	38.3	0.31	0.31	% Cytotoxicity (Detroit-562 cells [4]; [9]): 9.49%; % Cytotoxicity (Detroit-562 cells [4]; [10]): 15.39%; % Cytotoxicity (Detroit-562 cells [4]; [11]): 16.21%; % Cytotoxicity (Detroit-562 cells [4]; [12]): 19.54%; % Cytotoxicity (Detroit-562 cells [4]; single agent at IC90, cisplatin/5-FU/compound A study): 12.59%; % Cytotoxicity (FADU cells [8]; [9]): 6.81%; % Cytotoxicity (FADU cells [8]; single agent at IC30, cisplatin/5-FU/compound A study): 17.81%; % Cytotoxicity (FADU cells [8]; [10]): 19.29%; % Cytotoxicity (FADU cells [8]; [11]): 21.1%; % Cytotoxicity (FADU cells [8]; [12]): 28.6%
CC(=O)O[C@@]12CO[C@@H]1C[C@H](O)[C@@]1(C)C(=O)[C@H](O)C3=C(C)[C@@H](OC(=O)[C@H](O)[C@@H](NC(=O)OC(C)(C)C)c4ccccc4)C[C@@](O)([C@@H](OC(=O)c4ccccc4)[C@H]21)C3(C)C [Docetaxel]	–	–	–	0.3	8.7	0.85	21.8	0.06	0.71	0.16	35.6	0.009	0.003	–
CS(=O)(=O)CCNCc1ccc(-c2ccc3ncnc(Nc4ccc(OCc5cccc(F)c5)c(Cl)c4)c3c2)o1 [Lapatinib, N-(3-chloro-4-{[(3-fluorophenyl)methyl]oxy}phenyl)-6-[5-({[2-(methylsulfonyl)ethyl]amino}methyl)-2-furanyl]-4-quinazolinaminebis(4-methylbenzenesulfonate)monohydrate]	9.9	0.2	3.3	1.0	7.6	3.9	12.6	0.8	8.7	2.6	14.3	–	–	IC50 (SCC-25 cells [1]; SCC-25 cells, 72 hr, read-out: IC50): 0.5 µM; cytotoxicity at 0.2 µM (SCC-25 cells [3]; single agent at IC30 (lapatinib 0.2 μM; compound A 0.2 μM)): 17%; cytotoxicity at 0.2 µM (SCC-25 cells [3]; single agent at IC30 (lapatinib 0.2 μM; compound B 0.2 μM)): 17%; cytotoxicity at 1 µM (Detroit-562 cells [4]; single agent at IC30 (lapatinib 1 μM; compound A 0.5 μM)): 16%; cytotoxicity at 1 µM (Detroit-562 cells [4]; single agent at IC30 (lapatinib 1.0 μM; compound B 2.7 μM)): 16%; cytotoxicity at 0.8 µM (FADU cells [5]; single agent at IC30 (lapatinib 0.8 μM; compound A 0.2 μM)): 19%; cytotoxicity at 0.8 µM (FADU cells [5]; single agent at IC30 (lapatinib 0.8 μM; compound B 2.3 μM)): 19%
